For eight compounds, IC50 results are on record in patent US10479780B2, “Aminopyrazole derivatives” (Chugai Seiyaku Kabushiki Kaisha, priority 2015, dated 2019).

Each structure is given as a SMILES string.

Holding throughout (type): biochemical
Assay [1] has as its target T1, human Src enzyme (Homo sapiens, UniProt P12931).
T1 construct: purchased Carna Biosciences, Inc. 08-173
Nature of the assay: Src enzyme inhibitory activity (time-resolved fluorometry, biotinylated peptide phosphorylation). As to conditions: read-out: SRC_IC50. In a few lines:
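Compounds were tested for blocking tyrosine phosphorylation of a biotinylated peptide substrate by recombinant human Src. Phosphorylated product was quantified by time-resolved fluorometry using europium cryptate and XL665 conjugates, and IC50 was calculated against the compound-free control.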

Assay [2] has as its target T2, human Yes1 enzyme (Homo sapiens, UniProt P07947).
T2 construct: made in house
Nature of the assay: Yes1 enzyme inhibitory activity (time-resolved fluorometry, biotinylated peptide phosphorylation). As to conditions: read-out: YES_IC50. In a few lines: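 Inhibition was expressed against a compound-free control to give IC50, using TR-FRET read-out (Eu-cryptate anti-pTyr antibody, streptavidin-XL665).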

Assay [3] has as its target T3, human Lck enzyme (Homo sapiens, UniProt P06239).
T3 construct: purchased Carna Biosciences, Inc. 08-170
Nature of the assay: Lck enzyme inhibitory activity (time-resolved fluorometry, biotinylated peptide phosphorylation). Conditions: read-out: LCK_IC50. In a few lines: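 Readout pairs a europium cryptate-labelled anti-phosphotyrosine antibody with XL665-streptavidin, measured by time-resolved fluorescence. IC50 derived from percent inhibition against untreated controls.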

T3 sequence (P06239 whole entry): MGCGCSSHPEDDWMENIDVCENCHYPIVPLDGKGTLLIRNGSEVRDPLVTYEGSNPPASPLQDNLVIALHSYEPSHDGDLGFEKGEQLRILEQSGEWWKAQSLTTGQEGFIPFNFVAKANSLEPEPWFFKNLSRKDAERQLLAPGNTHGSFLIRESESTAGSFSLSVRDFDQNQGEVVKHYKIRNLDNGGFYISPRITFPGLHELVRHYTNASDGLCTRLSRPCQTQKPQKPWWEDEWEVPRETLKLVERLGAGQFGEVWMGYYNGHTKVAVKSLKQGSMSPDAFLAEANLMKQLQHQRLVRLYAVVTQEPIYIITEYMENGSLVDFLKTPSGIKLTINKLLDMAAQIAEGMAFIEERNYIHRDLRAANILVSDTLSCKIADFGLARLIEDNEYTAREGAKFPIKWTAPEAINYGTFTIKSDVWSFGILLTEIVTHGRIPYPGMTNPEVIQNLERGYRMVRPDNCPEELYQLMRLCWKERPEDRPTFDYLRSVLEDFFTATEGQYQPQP
T2 sequence (P07947 whole entry): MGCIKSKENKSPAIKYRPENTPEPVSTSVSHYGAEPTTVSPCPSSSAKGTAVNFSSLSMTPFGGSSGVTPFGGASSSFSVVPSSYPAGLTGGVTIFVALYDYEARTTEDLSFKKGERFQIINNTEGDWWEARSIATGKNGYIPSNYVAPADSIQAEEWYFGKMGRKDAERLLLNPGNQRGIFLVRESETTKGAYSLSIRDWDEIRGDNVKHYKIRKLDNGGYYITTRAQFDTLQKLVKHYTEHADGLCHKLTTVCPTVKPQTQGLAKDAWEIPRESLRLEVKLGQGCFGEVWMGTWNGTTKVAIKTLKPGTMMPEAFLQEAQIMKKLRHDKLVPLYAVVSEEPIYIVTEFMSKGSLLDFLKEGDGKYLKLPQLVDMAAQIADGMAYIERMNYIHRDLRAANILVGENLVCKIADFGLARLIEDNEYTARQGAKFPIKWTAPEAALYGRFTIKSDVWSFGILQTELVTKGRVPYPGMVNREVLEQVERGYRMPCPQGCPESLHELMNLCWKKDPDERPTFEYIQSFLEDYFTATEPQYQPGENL
T1 sequence (P12931 whole entry): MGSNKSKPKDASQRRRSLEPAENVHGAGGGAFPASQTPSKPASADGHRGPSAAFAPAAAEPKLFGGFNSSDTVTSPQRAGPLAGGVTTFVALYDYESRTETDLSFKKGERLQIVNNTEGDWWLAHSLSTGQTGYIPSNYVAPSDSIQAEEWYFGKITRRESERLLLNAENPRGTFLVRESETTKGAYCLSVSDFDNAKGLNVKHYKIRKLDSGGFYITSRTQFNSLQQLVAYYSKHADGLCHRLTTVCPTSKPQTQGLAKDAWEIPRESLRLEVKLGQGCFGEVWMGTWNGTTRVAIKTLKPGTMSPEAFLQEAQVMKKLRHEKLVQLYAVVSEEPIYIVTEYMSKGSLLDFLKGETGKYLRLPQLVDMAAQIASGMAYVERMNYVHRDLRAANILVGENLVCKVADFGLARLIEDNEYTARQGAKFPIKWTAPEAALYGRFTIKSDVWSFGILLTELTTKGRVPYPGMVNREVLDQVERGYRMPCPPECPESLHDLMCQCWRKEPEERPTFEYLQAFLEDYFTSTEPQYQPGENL

Turning to `Cc1cc(Oc2c(F)cccc2F)ncc1-n1ncc(C(=O)c2cc3cc(OC4CCN(C5CCCC5)CC4)c(-c4ccccc4C(F)(F)F)cc3[nH]2)c1N` [Example 5-1-387, [5-amino-1-[6-(2,6-difluorophenoxy)-4-methylpyridin-3-yl]pyrazol-4-yl]-[5-(1-cyclopentylpiperidin-4-yl)oxy-6-[2-(trifluoromethyl)phenyl]-1H-indol-2-yl] methanone], the IC50 in assay [1] was 190 nM; in assay [2] it was 3.1 nM; in assay [3], 29 nM.
For the compound `Cc1cc(Oc2c(F)cccc2F)ncc1-n1ncc(C(=O)c2cc3cc(OC4CCN(C5CS(=O)(=O)C5)CC4)c(-c4ccccc4C(F)(F)F)cc3[nH]2)c1N` [Example 5-1-388, [5-amino-1-[6-(2,6-difluorophenoxy)-4-methylpyridin-3-yl]pyrazol-4-yl]-[5-[1-(1,1-dioxothietan-3-yl)piperidin-4-yl]oxy-6-[2-(trifluoromethyl)phenyl]-1H-indol-2-yl] methanone], the IC50 in assay [1] is 220 nM; in assay [2], 4.2 nM; in assay [3], 47 nM.
Turning to `Cc1cc(Oc2ccccc2F)ccc1-n1ncc(C(=O)c2cc3cc(F)c(NS(=O)(=O)C4CCOCC4)cc3[nH]2)c1N` [Example 5-1-389, N-[2-[5-amino-1-[4-(2-fluorophenoxy)-2-methylphenyl]pyrazole-4-carbonyl]-5-fluoro-1H-indol-6-yl]oxane-4-sulfonamide], the IC50 in assay [1] was 24 nM; in assay [2], 1.4 nM; in assay [3], 18 nM.
As for `Cc1cc(Oc2ccccc2F)ccc1-n1ncc(C(=O)c2cc3cc(OC(F)F)c(NS(=O)(=O)C4CCOCC4)cc3[nH]2)c1N` [Example 5-1-390, N-[2-[5-amino-1-[4-(2-fluorophenoxy)-2-methylphenyl]pyrazole-4-carbonyl]-5-(difluoromethoxy)-1H-indol-6-yl]oxane-4-sulfonamie], the IC50 in assay [1] turned out to be 44 nM; in assay [2], 1.9 nM; in assay [3], 25 nM.
`Cc1cc2cc(C(=O)c3cnn(-c4ccc(Oc5ccccc5F)cc4C)c3N)[nH]c2cc1N1C(=O)NC2(CCN(C3COC3)CC2)C1=O` [Example 5-1-391, 3-(2-(5-amino-1-(4-(2-fluorophenoxy)-2-methylphenyl)-1H-pyrazole-4-carbonyl)-5-methyl-1H-indol-6-yl)-8-(oxetan-3-yl)-1,3,8-triazaspiro[4.5]decane-2,4-dione]: the IC50 in assay [1] was 11 nM; in assay [2], 1.3 nM; in assay [3], 5.5 nM.
`Cc1cc2cc(C(=O)c3cnn(-c4ccc(Oc5ccccc5F)cc4C)c3N)[nH]c2cc1N1C(=O)NC2(CCN(Cc3ccccc3)CC2)C1=O` [Example 5-1-392, 3-[2-[5-amino-1-[4-(2-fluorophenoxy)-2-methylphenyl]pyrazole-4-carbonyl]-5-methyl-1H-indol-6-yl]-8-benzyl-1,3,8-triazaspiro[4.5] decane-2,4-dione]: the IC50 in assay [1] came out at 89 nM; in assay [2], 2.9 nM; in assay [3], 14 nM.
With `Cc1cc2cc(C(=O)c3cnn(-c4ccc(Oc5ccccc5F)cc4C)c3N)[nH]c2cc1N1C(=O)NC2(CCN(C3COC3)C2)C1=O` (stereo not drawn) [Example 5-1-393, 3-[2-[5-amino-1-[4-(2-fluorophenoxy)-2-methylphenyl]pyrazole-4-carbonyl]-5-methyl-1H-indol-6-yl]-7-(oxetan-3-yl)-1,3,7-triazaspiro [4.4]nonane-2,4-dione], the IC50 in assay [1] amounted to 9.8 nM; in assay [2], 1 nM; in assay [3], 4.6 nM.
Regarding `Cc1cc2cc(C(=O)c3cnn(-c4ccc(Oc5ccccc5F)cc4C)c3N)[nH]c2cc1N1C(=O)NC2(CCN(Cc3ccccc3)C2)C1=O` (stereo not drawn) [Example 5-1-394, 3-[2-[5-amino-1-[4-(2-fluorophenoxy)-2-methylphenyl]pyrazole-4-carbonyl]-5-methyl-1H-indol-6-yl]-7-benzyl-1,3,7-tnazaspiro[4.4] nonane-2,4-dione], the results for the IC50 in assay [1], in assay [2] and in assay [3] were 93 nM, 2.9 nM and 21 nM, respectively.
